Laboratory results published in patent US20250179073A1, “TRICYCLIC HETEROCYCLE COMPOUNDS AS IAP ANTAGONISTS” (Ascentage Pharma (Suzhou) Co., Ltd., priority 2022, published 2025).

Columns and labels:
MDA-MB-231 cells = experiment: Cell proliferation assay (CellTiter-Glo), MDA-MB-231; format: cell-based; conditions: Homo sapiens, MDA-MB-231, 72 h, 72 h treatment, Celltiter-Glo luminescence
Outline: (§1)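 MDA-MB-231 (RPMI-1640/10% FBS) and EVSA-T (MEM/10% FBS) cells, 10000 cells/well, exposed 72 h to compound at […]. Viability read by CellTiter-Glo luminescence after 15 min at room temperature. IC50 from control-normalised curve fitting.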

EVSA-T cells = experiment: Cell proliferation assay (CellTiter-Glo), EVSA-T; format: cell-based; conditions: Homo sapiens, EVSA-T, 72 h, 72 h treatment, Celltiter-Glo luminescence
Outline: as §1

Compound | IC50 (MDA-MB-231 cells) | IC50 (EVSA-T cells)
C[C@@H]1CN(CC(=O)N2CC(C)(C)c3c2cc(Cc2ccc(F)cc2)c2cncn32)[C@@H](CN2CCOC[C@H]2C)CN1 [Compound 1, 1-(4-(4-fluorobenzyl)-8,8-dimethyl-7,8-dihydro-6H-imidazo[1,5-a]pyrrolo[2,3-e]pyridin-6-yl)-2-((2R,5R)-5-methyl-2-(((R)-3-methylmorpholino)methyl)piperazin-1-yl)ethan-1-one] | 77 nM | 7 nM
C[C@@H]1CN(CC(=O)N2CC(C)(C)c3c2cc(Cc2ccc(F)cc2)c2nc(C(F)F)nn32)[C@@H](CN2CCOC[C@H]2C)CN1 [Compound 142, 1-(2-(difluoromethyl)-4-(4-fluorobenzyl)-8,8-dimethyl-7,8-dihydro-6H-pyrrolo[2,3-e][1,2,4]triazolo[1,5-a]pyridin-6-yl)-2-((2R,5R)-5-methyl-2-(((R)-3-methylmorpholino)methyl)piperazin-1-yl)ethan-1-one] | 50 nM | 2 nM
C[C@@H]1CN(CC(=O)N2CC3(CC3)c3c2cc(Cc2ccc(F)cc2)c2ncnn32)[C@@H](CN2CCOC[C@H]2C)CN1 [Compound 56, 1-(4′-(4-fluorobenzyl)spiro[cyclopropane-1,8′-pyrrolo[2,3-e][1,2,4]triazolo [1,5-a]pyridin]-6′(7′H)-yl)-2-((2R,5R)-5-methyl-2-(((R)-3-methylmorpholino)methyl)piperazin-1-yl)ethan-1-one] | 35 nM | 9 nM
COc1nc2c(Cc3ccc(F)cc3)cc3c(n2n1)C(C)(C)CN3C(=O)CN1C[C@@H](C)NC[C@@H]1CN1CCOC[C@H]1C [Compound 126, 1-(4-(4-fluorobenzyl)-2-methoxy-8,8-dimethyl-7,8-dihydro-6H-pyrrolo[2,3-e][1,2,4]triazolo[1,5-a]pyridin-6-yl)-2-((2R,5R)-5-methyl-2-(((R)-3-methylmorpholino)methyl)piperazin-1-yl)ethan-1-one] | 20 nM | 3 nM
C[C@@H]1CN(CC(=O)N2CC(C)(C)c3c2cc(Cc2ccc(F)cc2)c2nn(Cc4cnccn4)c(=O)n32)[C@@H](CN2CCOC[C@H]2C)CN1 [Compound 193, 4-(4-fluorobenzyl)-8,8-dimethyl-6-(2-((2R,5R)-5-methyl-2-(((R)-3-methylmorpholino)methyl)piperazin-1-yl)acetyl)-2-(pyrazin-2-ylmethyl)-2,6,7,8-tetrahydro-1H-pyrrolo[2,3-e][1,2,4]triazolo[4,3-a]pyridin-1-one] | 50 nM | 6 nM
C[C@@H]1CN(CC(=O)N2CC(C)(C)c3c2cc(Cc2ccc(Cl)cc2)c2ncnn32)[C@@H](CN2CCOC[C@H]2C)CN1 [Compound 44, 1-(4-(4-chlorobenzyl)-8,8-dimethyl-7,8-dihydro-6H-pyrrolo[2,3-e][1,2,4]triazolo[1,5-a]pyridin-6-yl)-2-((2R,5R)-5-methyl-2-(((R)-3-methylmorpholino)methyl)piperazin-1-yl)ethan-1-one] | 75 nM | 9 nM
[2H]C([2H])([2H])n1nc2c(Cc3ccc(F)cc3)cc3c(n2c1=O)C(C)(C)CN3C(=O)CN1C[C@@H](C)NC[C@@H]1CN1CCOC[C@H]1C [Compound 252] | 32 nM | 5.3 nM
C[C@@H]1CN(CC(=O)N2CC(C)(C)c3c2cc(Cc2ccc(F)cc2)c2ncnn32)[C@@H](CN2Cc3cc(F)ccc3C2=O)CN1 [Compound 100, 5-fluoro-2-(((2R,5R)-1-(2-(4-(4-fluorobenzyl)-8,8-dimethyl-7,8-dihydro-6H-pyrrolo[2,3-e][1,2,4]triazolo[1,5-a]pyridin-6-yl)-2-oxoethyl)-5-methylpiperazin-2-yl)methyl)isoindolin-1-one] | 21 nM | 4 nM
C[C@@H]1CN(CC(=O)N2CC(C)(C)c3c2cc(Cc2ccc(F)cc2)c2nc(NC=O)nn32)[C@@H](CN2CCOC[C@H]2C)CN1 [Compound 239, N-(4-(4-fluorobenzyl)-8,8-dimethyl-6-(2-((2R,5R)-5-methyl-2-(((R)-3-methylmorpholino)methyl)piperazin-1-yl)acetyl)-7,8-dihydro-6H-pyrrolo[2,3-e][1,2,4]triazolo[1,5-a]pyridin-2-yl)formamide] | 14 nM | 0.5 nM
